Tests used:
Type in all cases: cell-based
[1] = test system: PC12 cells; assay: Uptake of uridine into PC12 cells; conditions: P2Y receptor antagonists
[2] = test system: P2Y receptors; assay: P2Y receptor antagonism of uridine-enhanced NGF-stimulated neurite outgrowth in PC12 cells; conditions: PC12, 4 days, uridine 100 μM
Method: (§1) PC12 cells were sparsely plated on collagen-coated 60 mm culture dishes in MEM containing 1% fetal bovine serum. […] All treatments were performed 24 h after plating. At the end of the treatment period, images were obtained with a phase-contrast Zeiss Axioplan 2 microscope, using OpenLab software. Six digital images were captured for each dish, for a total of 18 to 24 images per treatment group. Approximately 300 cells were quantified for each treatment group for each experiment. Experiments were performed in triplicate. Quantification of neurites, including neurite branching and neurite length, was performed by one more researchers blinded to experimental groups. Neurite length was measured using the public domain NIH software “Image J.” Processes longer than the diameter of the cell body were counted as neurites. Only process-bearing cells were analyzed.

[3] = test system: PLC/DAG/IP3 signaling pathway; assay: PI turnover (inositol phosphate formation) in NGF-differentiated PC12 cells; conditions: for Formation of IP (PI turnover): 1 hour
Method: Analysis of PI turnover was performed as described by ([…] et al, J Neurochem 69: 704-12, 1997). Briefly, cells were labeled metabolically for 36 h with 1.25 microCurie (μCi)/dish of myo-[2-^3H]inositol (17-0 Curie/mmol; Amersham Biosciences) in serum-free MEM, washed twice with Hank's balanced salt solution (HBSS), and treated for 15 min with 10 mM lithium chloride in HBSS. Drugs were added in the presence of 10 mM lithium for 60 min at 37° C. Cells were lysed with ice-cold methanol, and lipids were removed by extraction with chloroform/methanol/water (2:2:1 by volume). Labeled water-soluble inositol phosphates were separated from free [^3H]inositol by ion-exchange chromatography, using AG 1-X8 columns (Bio-Rad), and 1M ammonium formate and 0.1M formic acid as eluent. Radioactivity was quantified by liquid scintillation spectrometry. P2Y2, P2Y4 and P2Y6 receptors activate the phospholipase C/diacylglycerol/inositol triphosphate (PLC/DAG/IP3) signaling pathway. […] These findings indicate that UTP promotes neurite outgrowth via P2Y receptors-mediated stimulation of the IP signaling pathway.

[4] = test system: PC12 cells; assay: NGF-induced neurite outgrowth in PC12 cells; conditions: for Number of neurites per cell: PC12, with NGF
Method: PC12 cells were maintained in Minimal Essential Medium (MEM; Invitrogen, Carlsbad, Calif.) supplemented with 10% fetal bovine serum (FBS) at 37° C. Experimental incubations were for 2 or 4 days in medium containing 50 ng/ml mouse 2.5 S (2.5 subunit) NGF and 1% FBS, with or without test compounds. NGF and FBS were obtained from Invitrogen.
as §1

[5] = test system: PC12 cells; assay: Intracellular UTP and CTP levels in PC12 cells by HPLC; conditions: PC12, 2 days with NGF, vs NGF only
Method: (§2) Brain tissue or cells was dissolved in methanol/chloroform (1:2 vol/vol), centrifuged, and the aqueous phase was dried under vacuum, resuspended in 100-200 μL water and separated by HPLC on an ion-exchange column (Alltech Hypersil APS-2, 5 μM, 250×4.6 mm). CDP-choline was eluted with a linear gradient of NaH2PO4 buffers A (1.75 mM NaH2PO4, pH 2.9) and B (500 mM, pH 4.5), which allowed resolution of CDP-choline from closely co-eluting substances such as UMP over 40 min. The retention time for CDP-choline was 9.5 min. Individual nucleotide peaks were detected by UV absorption at […], and were identified by comparison with the positions of authentic standards, as well as by the addition of nucleotide standards to selected samples.
Levels of intracellular UTP and CTP were analyzed by HPLC as described for Example 5, except that 5 mM NaH2PO4, pH 2.65 was used as buffer A.

[6] = test system: P2Y2, P2Y4 and P2Y6 receptors; assay: P2Y receptor expression in NGF-differentiated PC12 cells; conditions: vs NGF alone
Method: Western blots utilized rabbit anti-P2Y2, anti-P2Y4 (both from Calbiochem); or rabbit anti-P2Y6 (Novus Biologicals, Littleton, Colo.). PC12 cells were treated as described above, except they were grown on 12 mm glass cover slips ([…] & Co., Vernon Hills, Ill.) coated with collagen. Proteins were visualized using immunofluorescence. […] For P2Y2 and P2Y4 visualization, control cultures were incubated with primary antibody plus a control antigen in order to ensure that the immuno-staining would be specific. Control antigen was not available for the P2Y6 receptor. Cells were then incubated in fluorochrome-conjugated secondary antibodies for 1 hour (goat anti-rabbit ALEXA 488 and goat anti-mouse ALEXA 568; Molecular Probes, Eugene, Oreg.) and mounted on glass slides with mounting media with or without DAPI (Vector Laboratories, Burlingame, Calif.). Control antigens provided with the primary antibodies were used to ensure that immuno-staining was specific. […] To determine whether these receptors participate in the mechanism by which extracellular UTP affects neurite outgrowth, it was first determined whether the receptors are expressed in PC 12 cells, and whether exposure to NGF alters their expression, PC 12 cells were treated for 0-7 days with NGF and levels of the receptors measured. […]

[7] = test system: PC 12 cells; assay: Intracellular CDP-choline levels in PC12 cells treated with uridine; conditions: uridine treatment, after 50 minutes
Method: as §2

Cc1ccc(C(=O)Nc2ccc(S(=O)(=O)O)c3cc(S(=O)(=O)O)cc(S(=O)(=O)O)c23)cc1NC(=O)c1cccc(NC(=O)Nc2cccc(C(=O)Nc3cc(C(=O)Nc4ccc(S(=O)(=O)O)c5cc(S(=O)(=O)O)cc(S(=O)(=O)O)c45)ccc3C)c2)c1 [suramin]
Inhibition of uptake of uridine into PC12 cells [1]: None of the P2Y receptor antagonists inhibited | Block of uridine enhancement of NGF-stimulated neurite outgrowth ([2]; antagonist 30 μM): significantly (p<0.05 or 0.001) blocked

O=c1ccn([C@@H]2O[C@H](COP(=O)(O)OP(=O)(O)OP(=O)(O)O)[C@@H](O)[C@H]2O)c(=O)[nH]1 [UTP, uridine-5′-triphosphate]
Formation of IP (PI turnover) ([3]; NGF-differentiated PC12, 100 μM): significantly increased | Neurite outgrowth (neurites per cell) ([4]; PC12, NGF, 10 and 50 μM, 4 days, vs NGF only): significantly (p<0.01) enhanced | Intracellular CTP levels ([5]; 100 μM): did not significantly affect | Intracellular UTP levels ([5]; 100 μM): did not significantly affect

Cc1nc(N=Nc2ccc(S(=O)(=O)O)cc2S(=O)(=O)O)c(COP(=O)(O)O)c(C=O)c1O [PPADS, pyridoxal-phosphate-6-azophenyl-2′,4′ disulfonic acid]
Inhibition of uptake of uridine into PC12 cells [1]: None of the P2Y receptor antagonists inhibited | Block of UTP-stimulated IP signaling ([3]; NGF-differentiated PC12, antagonist 100 μM): significantly (p<0.05) blocked | Block of uridine enhancement of NGF-stimulated neurite outgrowth ([2]; antagonist 30 μM): significantly (p<0.05 or 0.001) blocked

Nc1c(S(=O)(=O)O)cc(Nc2ccc(Nc3nc(Cl)nc(Nc4cccc(S(=O)(=O)O)c4)n3)c(S(=O)(=O)O)c2)c2c1C(=O)c1ccccc1C2=O [RB-2, reactive blue 2]
Inhibition of uptake of uridine into PC12 cells [1]: None of the P2Y receptor antagonists inhibited | Block of uridine enhancement of NGF-stimulated neurite outgrowth ([2]; antagonist 10 μM): significantly (p<0.05 or 0.001) blocked

O=c1ccn([C@@H]2O[C@H](CO)[C@@H](O)[C@H]2O)c(=O)[nH]1 [uridine]
Expression of P2Y2, P2Y4 and P2Y6 receptors [6]: did not affect the expression of the receptors | Formation of IP (PI turnover) ([3]; NGF-differentiated PC12, 50 μM): significantly increased | Average neurite length ([4]; NGF-differentiated PC12 cells): did not significantly affect | Number of neurite branch points per cell ([4]; PC12, NGF, 50 μM, 4 days, vs NGF only): significantly (p<0.01) increased | Production of neurites ([4]; PC12, absence of NGF, 50 μM, 2 or 4 days): did not result in the production of neurites | Number of neurites per cell ([4]; 2-day treatment or lower concentrations (10, 25 μM)): had no effect | Number of neurites per cell ([4]; 50-200 μM, 4 days): significantly (p<0.01 or 0.001) enhanced | Intracellular CTP levels ([5]; 50 μM): significantly (p<0.05) increased | Intracellular UTP levels ([5]; 50 μM): significantly (p<0.05) increased | Intracellular CDP-choline levels [7]: statistically significant increase

Nc1ccn([C@@H]2O[C@H](CO)[C@@H](O)[C@H]2O)c(=O)n1 [cytidine]
Neurite outgrowth ([4]; NGF-exposed PC12 cells, cytidine treatment): had no effect on neurite outgrowth | Intracellular CTP levels ([5]; 50 μM): did not significantly affect | Intracellular UTP levels ([5]; 50 μM): did not significantly affect

— US20090105189A1, “METHODS AND COMPOSITIONS FOR AMELIORATING OR INHIBITING DECLINE IN MEMORY OR INTELLIGENCE OR IMPROVING SAME” (priority 2006, published 2009)
